Results reported in publication PMC10967972, “Different Coactivator Recruitment to Human PPARα/δ/γ Ligand-Binding Domains by Eight PPAR Agonists to Treat Nonalcoholic Fatty Liver Disease” (Biomedicines, 2024).
Read-outs that look alike come from different tables or passages of the source.

What was measured:
Assay type in all cases: biochemical
human PPARα-LBD = target: T1, human PPARα-LBD (Homo sapiens, UniProt Q07869); experiment: TR-FRET coactivator recruitment assay, PPARα-LBD; design: extent of recruitment of all four coactivators to PPARα-LBD: reference not given here; conditions: for EC50: Buffer A; for Approximate potency order in the recruitment of four coactivators, PPARα: evaluated based on EC50 values, PGC, PGC1α, SRC, SRC1, TRAP, TRAP220
T1 construct: Human PPARα-LBD [amino acids (AAs) 200–468]; made in house
T1 sequence (Q07869 200-468): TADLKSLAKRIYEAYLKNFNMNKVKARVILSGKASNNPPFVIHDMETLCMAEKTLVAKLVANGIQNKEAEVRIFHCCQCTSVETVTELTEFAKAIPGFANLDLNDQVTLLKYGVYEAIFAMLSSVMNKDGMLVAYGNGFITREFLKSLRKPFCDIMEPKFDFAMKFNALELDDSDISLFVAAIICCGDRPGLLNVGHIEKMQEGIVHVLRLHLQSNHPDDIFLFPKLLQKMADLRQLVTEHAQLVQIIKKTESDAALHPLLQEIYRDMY

human PPARδ-LBD = target: T2, human PPARδ-LBD (Homo sapiens, UniProt Q03181); experiment: TR-FRET coactivator recruitment assay, PPARδ-LBD
T2 construct: PPARδ-LBD (AAs 170–441); made in house
T2 sequence (Q03181 170-441): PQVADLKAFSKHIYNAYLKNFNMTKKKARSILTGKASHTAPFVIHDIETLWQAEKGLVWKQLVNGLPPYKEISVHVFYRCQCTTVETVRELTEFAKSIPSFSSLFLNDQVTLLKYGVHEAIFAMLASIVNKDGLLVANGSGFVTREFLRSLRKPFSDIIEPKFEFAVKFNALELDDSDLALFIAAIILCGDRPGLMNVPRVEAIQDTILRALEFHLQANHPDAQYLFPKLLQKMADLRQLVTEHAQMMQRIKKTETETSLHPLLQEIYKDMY

human PPARγ-LBD = target: T3, human PPARγ-LBD (Homo sapiens, UniProt P37231); experiment: TR-FRET coactivator recruitment assay, PPARγ-LBD
T3 construct: PPARγ-LBD (AAs 203–477 in isoform 1); made in house
T3 sequence (P37231 203-477 isoform P37231-2): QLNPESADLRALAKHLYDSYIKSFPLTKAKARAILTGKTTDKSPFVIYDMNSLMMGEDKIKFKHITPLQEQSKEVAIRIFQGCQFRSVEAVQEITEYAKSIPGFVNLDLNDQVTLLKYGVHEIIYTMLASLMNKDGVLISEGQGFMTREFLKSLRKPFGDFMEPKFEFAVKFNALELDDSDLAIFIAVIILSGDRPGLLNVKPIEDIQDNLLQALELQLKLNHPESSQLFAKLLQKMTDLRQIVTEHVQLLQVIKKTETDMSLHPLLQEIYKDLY

[1] = CBP peptide recruitment, read-out: PPARα CBP EC50
[2] = PGC1α peptide recruitment, read-out: PPARα PGC1α EC50
[3] = SRC1 peptide recruitment, read-out: PPARα SRC1 EC50
[4] = TRAP220 peptide recruitment, read-out: PPARα TRAP220 EC50
[5] = read-out: PPARα CBP % of GW7647 max response
[6] = read-out: PPARα PGC1α % of GW7647 max response
[7] = read-out: PPARα SRC1 % of GW7647 max response
[8] = read-out: PPARα TRAP220 % of GW7647 max response
[9] = CBP peptide recruitment, Buffer A, read-out: PPARδ CBP EC50
[10] = PGC1α peptide recruitment, Buffer A, read-out: PPARδ PGC1α EC50
[11] = SRC1 peptide recruitment, Buffer A, read-out: PPARδ SRC1 EC50
[12] = TRAP220 peptide recruitment, Buffer A, read-out: PPARδ TRAP220 EC50
[13] = evaluated based on EC50 values, PGC, PGC1α, SRC, SRC1, TRAP, TRAP220
[14] = read-out: PPARδ CBP % of GW501516 max response
[15] = read-out: PPARδ PGC1α % of GW501516 max response
[16] = read-out: PPARδ TRAP220 % of GW501516 max response
[17] = read-out: PPARγ CBP % of GW1929 max response
[18] = read-out: PPARγ PGC1α % of GW1929 max response
[19] = read-out: PPARγ SRC1 % of GW1929 max response
[20] = read-out: PPARγ TRAP220 % of GW1929 max response
[21] = read-out: PPARδ SRC1 % of GW501516 max response

| EC50 (human PPARα-LBD; [1]) | EC50 (human PPARα-LBD; [2]) | EC50 (human PPARα-LBD; [3]) | EC50 (human PPARα-LBD; [4]) | EC50 (human PPARδ-LBD; [9]) | EC50 (human PPARδ-LBD; [10]) | Approximate potency order in the recruitment of four coactivators, PPARδ (human PPARδ-LBD; [13]) | Emax (human PPARγ-LBD; [17]) | Emax (human PPARγ-LBD; [18]) | Emax (human PPARγ-LBD; [19]) | Emax (human PPARγ-LBD; [20]) | Structure (SMILES) | Approximate potency order in the recruitment of four coactivators, PPARα (human PPARα-LBD) | Emax (human PPARα-LBD; [5]) | Emax (human PPARα-LBD; [6]) | Emax (human PPARα-LBD; [7]) | Emax (human PPARα-LBD; [8]) | Emax (human PPARδ-LBD; [14]) | Emax (human PPARδ-LBD; [15]) | Emax (human PPARδ-LBD; [16]) | Emax (human PPARδ-LBD; [21]) | also measured |
| --- | --- | --- | --- | --- | --- | --- | --- | --- | --- | --- | --- | --- | --- | --- | --- | --- | --- | --- | --- | --- | --- |
| 0.28 µM | 0.761 µM | 0.814 µM | 0.674 µM | > 100 µM | 3.91 µM | Faint activation | 85% | 50.1% | 40% | 52.4% | CCO[C@@H](Cc1ccc(OCCn2c(C)ccc2-c2ccc(SC)cc2)cc1)C(=O)O [Saroglitazar, saroglitazar] | CBP>TRAP>PGC=SRC | 80.2% | 58.3% | 54.2% | 64.2% | 6.72% | 8.94% | 2.5% | – | EC50 (human PPARδ-LBD; [11]): > 100 µM; EC50 (human PPARδ-LBD; [12]): > 100 µM; EC50 (human PPARγ-LBD; CBP peptide recruitment, Buffer A, read-out: PPARγ CBP EC50): 1.87 µM; EC50 (human PPARγ-LBD; PGC1α peptide recruitment, Buffer A, read-out: PPARγ PGC1α EC50): 2.46 µM; EC50 (human PPARγ-LBD; SRC1 peptide recruitment, Buffer A, read-out: PPARγ SRC1 EC50): 5.55 µM; EC50 (human PPARγ-LBD; TRAP220 peptide recruitment, Buffer A, read-out: PPARγ TRAP220 EC50): 8.43 µM; Approximate potency order in the recruitment of four coactivators, PPARγ (human PPARγ-LBD; [13]): CBP>PGC>TRAP=SRC |
| 3.41 µM | 8.02 µM | 11.1 µM | 7.33 µM | > 500 µM | > 500 µM | No activation | 73% | 82.5% | 42% | 64.8% | CC(C)(Oc1ccc(C(=O)c2ccc(Cl)cc2)cc1)C(=O)O [Fenofibric acid, fenofibric acid] | CBP>TRAP>PGC>SRC | 80.8% | 36.8% | 78.3% | 86% | 0.45% | 0.16% | 2.76% | 0.6% | EC50 (human PPARδ-LBD; [11]): > 500 µM; EC50 (human PPARδ-LBD; [12]): > 500 µM; Approximate potency order in the recruitment of four coactivators, PPARγ (human PPARγ-LBD; [13]): PGC=CBP=TRAP>SRC |

| Structure (SMILES) | EC50 (human PPARα-LBD; [1]) | EC50 (human PPARα-LBD; [2]) | EC50 (human PPARα-LBD; [3]) | EC50 (human PPARα-LBD; [4]) | EC50 (human PPARδ-LBD; [9]) | EC50 (human PPARδ-LBD; [10]) | Approximate potency order in the recruitment of four coactivators, PPARδ (human PPARδ-LBD; [13]) | Emax (human PPARγ-LBD; [17]) | Emax (human PPARγ-LBD; [18]) | Emax (human PPARγ-LBD; [19]) | Emax (human PPARγ-LBD; [20]) | Approximate potency order in the recruitment of four coactivators, PPARα (human PPARα-LBD) | Emax (human PPARα-LBD; [5]) | Emax (human PPARα-LBD; [6]) | Emax (human PPARα-LBD; [7]) | Emax (human PPARα-LBD; [8]) | Emax (human PPARδ-LBD; [14]) | Emax (human PPARδ-LBD; [15]) | Emax (human PPARδ-LBD; [16]) | Emax (human PPARδ-LBD; [21]) | also measured |
| --- | --- | --- | --- | --- | --- | --- | --- | --- | --- | --- | --- | --- | --- | --- | --- | --- | --- | --- | --- | --- | --- |
| CCc1ccc(CCOc2ccc(CC3SC(=O)NC3=O)cc2)nc1 (centres unmarked) [Pioglitazone, pioglitazone] | – | – | – | – | – | – | No activation | – | – | – | – | CBP>>>PGC=SRC=TRAP | 34.9% | 13.9% | 8.37% | 3.67% | 2.47% | 4.53% | 1.55% | 1.19% | – |
| CC(C)(Oc1ccc(CCNC(=O)c2ccc(Cl)cc2)cc1)C(=O)O [Bezafibrate, bezafibrate] | – | – | – | – | – | – | – | 68.7% | 68.6% | 34% | 55.7% | CBP>PGC=TRAP>SRC | 79.2% | 74.5% | 72.4% | 76.4% | 64.6% | 90.3% | 85.8% | 50% | extent of recruitment of all four coactivators to PPARα-LBD (human PPARα-LBD): 72.4–79.2%; recruitment of coactivators to PPARα-LBD (in words) (human PPARα-LBD; four coactivator peptides): recruited all four coactivators; Approximate potency order in the recruitment of four coactivators, PPARδ (human PPARδ-LBD): TRAP>PGC>CBP>SRC; recruitment of coactivators to PPARδ-LBD (in words) (human PPARδ-LBD): recruited all four coactivators; EC50 (human PPARδ-LBD; PPARδ CBP EC50): 58.5 µM; EC50 (human PPARδ-LBD; PPARδ TRAP220 EC50): 24.5 µM; EC50 (human PPARδ-LBD; read-out: PPARδ PGC1α EC50): 35.8 µM; EC50 (human PPARδ-LBD; read-out: PPARδ SRC1 EC50): 101 µM; Approximate potency order in the recruitment of four coactivators, PPARγ (human PPARγ-LBD): PGC=CBP=TRAP>SRC; recruitment of coactivators to PPARγ-LBD (in words) (human PPARγ-LBD): recruited all four coactivators; EC50 (human PPARγ-LBD; PPARγ CBP EC50): 36.3 µM; EC50 (human PPARγ-LBD; PPARγ PGC1α EC50): 41.8 µM; EC50 (human PPARγ-LBD; PPARγ SRC1 EC50): 108 µM; EC50 (human PPARγ-LBD; PPARγ TRAP220 EC50): 24.5 µM |
